Results on 16 compounds are retold here after ChEMBL document CHEMBL1201862, “PubChem BioAssay data set” (2004).

Activity calls are given as the source filed them. Bounds are passed on as bounds.

The target in test [1] is T1, RNA-binding protein pos-1 (Caenorhabditis elegans, UniProt G5EF15).
T1 sequence (G5EF15 whole entry): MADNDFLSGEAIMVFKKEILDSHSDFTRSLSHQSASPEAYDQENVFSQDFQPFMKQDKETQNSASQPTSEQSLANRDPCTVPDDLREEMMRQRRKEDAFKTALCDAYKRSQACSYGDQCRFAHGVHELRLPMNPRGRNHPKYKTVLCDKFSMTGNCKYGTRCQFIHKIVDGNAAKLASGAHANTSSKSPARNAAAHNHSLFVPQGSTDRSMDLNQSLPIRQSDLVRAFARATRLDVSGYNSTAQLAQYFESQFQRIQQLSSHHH
Description: inhibitors of POS-1/mex-3 RNA binding, dose response, biochemical, fluorescence polarization (AID 1964).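 Note: purified POS-1 fused to maltose binding protein made in E. coli; potency of compounds blocking POS-1 binding to fluorescent RNA.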 A general note: Fluorescence polarisation rises when a labelled molecule tumbles more slowly, as on binding a larger partner.

Test [2] concerns the target T2, Zinc finger protein mex-5 (Caenorhabditis elegans, UniProt Q9XUB2).
T2 sequence (Q9XUB2 whole entry): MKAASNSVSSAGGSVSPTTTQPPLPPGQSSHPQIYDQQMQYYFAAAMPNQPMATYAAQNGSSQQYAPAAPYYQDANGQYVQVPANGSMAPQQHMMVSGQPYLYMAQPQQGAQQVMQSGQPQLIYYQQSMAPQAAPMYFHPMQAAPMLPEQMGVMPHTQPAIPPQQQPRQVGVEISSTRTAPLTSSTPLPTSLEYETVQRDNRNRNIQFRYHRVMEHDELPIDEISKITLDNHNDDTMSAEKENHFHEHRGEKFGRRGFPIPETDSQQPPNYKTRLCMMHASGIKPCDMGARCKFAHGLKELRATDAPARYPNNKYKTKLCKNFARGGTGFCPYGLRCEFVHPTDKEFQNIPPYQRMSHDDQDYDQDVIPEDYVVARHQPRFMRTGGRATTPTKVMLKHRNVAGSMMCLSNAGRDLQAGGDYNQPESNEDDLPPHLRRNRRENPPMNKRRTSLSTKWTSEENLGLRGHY
As to the kind of experiment: MEX-5/TCR-2 RNA interaction inhibitors, dose response, biochemical, C. elegans, fluorescence polarization (AID 1960).

The nature of test [3]: cells. In kind it is functional, cell-based.
The nature of test [4]: cells. In kind it is functional, cell-based. This is another data set of the same source.
Test [5] is described as follows: growth suppression of PTEN-null colon cells, dose response, cell-based, HCT116 PTEN knockout (AID 1047).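 Note: HCT116 colon tumor cells with PTEN knocked out; cells exposed to compound for 60 hours before readout; potency for loss of cell viability measured by luminescence.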 In kind it is functional.
Test [6] in a line: growth suppression of beta-catenin-knockout colon cells, dose response, cell-based, HCT116, human colon tumor (AID 1045).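 Note: HCT116 colon tumor cells with beta catenin knocked out; cells exposed to compound for 60 hours.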 In kind it is functional.
A short description of test [7]: Luminescence Cell-Based Dose Retest to Confirm Inhibitors of Cancer Stem Cells. [Related pubchem assays (depositor defined):AID2717, AID2721]. In kind it is functional. The settings on record: Homo sapiens.
Test [8] relates to INS1. Description: beta cell apoptosis inhibitors, cytokine rescue, dose response, luminescence, retest (AID 449756).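 Note: cell death triggered by IL-1 beta plus TNF-alpha plus IFN-gamma mixture; protective hits raise ATP signal compared with cytokine alone wells.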 In kind it is functional, cell-based. The settings on record: Rattus norvegicus.
Test [9] concerns the target T3, Heat shock factor protein 1 (Mus musculus, UniProt P38532).
T3 sequence (P38532 whole entry): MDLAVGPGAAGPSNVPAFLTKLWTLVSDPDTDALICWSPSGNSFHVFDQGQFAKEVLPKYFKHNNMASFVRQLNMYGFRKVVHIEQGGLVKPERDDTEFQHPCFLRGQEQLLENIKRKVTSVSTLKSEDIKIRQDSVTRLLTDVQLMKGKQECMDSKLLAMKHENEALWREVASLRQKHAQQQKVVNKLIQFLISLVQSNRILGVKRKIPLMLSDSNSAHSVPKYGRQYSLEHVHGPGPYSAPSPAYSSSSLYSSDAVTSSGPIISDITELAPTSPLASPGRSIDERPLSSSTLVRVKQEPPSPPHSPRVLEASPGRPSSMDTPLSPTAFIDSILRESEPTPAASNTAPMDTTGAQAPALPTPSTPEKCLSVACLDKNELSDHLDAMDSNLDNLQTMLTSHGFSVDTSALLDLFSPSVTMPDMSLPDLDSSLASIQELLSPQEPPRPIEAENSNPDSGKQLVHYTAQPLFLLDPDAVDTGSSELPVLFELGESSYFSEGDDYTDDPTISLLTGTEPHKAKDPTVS
Description: HSF1 potentiators in luciferase reporter cells, confirmation, cell-based, NIH3T3, luminescence, dose retest (AID 435004).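 Note: stress induced by proteasome inhibitor MG132 added 30 min after compound; luciferase reporter driven by HSF1 response element in NIH3T3 cells; actives raise luminescence as potentiators of the MG132 stress response.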 In kind it is functional. (In general: Reporter assays use an easily measured gene product as a stand-in for the process of interest.)

Test [10] deals with Cytochrome P450 2C19 (Homo sapiens, UniProt P33261). As to the kind of experiment: Cytochrome panel assay with activity outcomes. Panel member name: p450-cyp2c19 Compounds with AC50 equal or less than 10 uM are considered active. The following applies: read-out: AC50. In kind it is functional.
Cytochrome P450 2C19, sequence (P33261 whole entry): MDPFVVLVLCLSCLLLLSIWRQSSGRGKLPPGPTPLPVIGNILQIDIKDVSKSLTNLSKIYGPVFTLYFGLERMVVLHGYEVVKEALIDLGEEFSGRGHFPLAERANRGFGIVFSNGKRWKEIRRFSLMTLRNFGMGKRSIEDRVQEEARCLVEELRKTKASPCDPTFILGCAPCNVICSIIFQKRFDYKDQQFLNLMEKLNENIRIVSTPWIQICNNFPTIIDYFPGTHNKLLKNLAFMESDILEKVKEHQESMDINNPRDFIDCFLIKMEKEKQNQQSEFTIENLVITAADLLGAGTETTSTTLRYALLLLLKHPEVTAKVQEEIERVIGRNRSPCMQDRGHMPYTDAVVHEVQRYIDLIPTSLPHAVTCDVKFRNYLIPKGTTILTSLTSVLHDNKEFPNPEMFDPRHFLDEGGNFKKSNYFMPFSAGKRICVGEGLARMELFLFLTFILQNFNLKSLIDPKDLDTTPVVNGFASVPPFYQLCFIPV
The target in test [11] is T4, Replicative DNA helicase DnaB (Mycobacterium tuberculosis, UniProt P9WMR3).
T4 sequence (P9WMR3 whole entry): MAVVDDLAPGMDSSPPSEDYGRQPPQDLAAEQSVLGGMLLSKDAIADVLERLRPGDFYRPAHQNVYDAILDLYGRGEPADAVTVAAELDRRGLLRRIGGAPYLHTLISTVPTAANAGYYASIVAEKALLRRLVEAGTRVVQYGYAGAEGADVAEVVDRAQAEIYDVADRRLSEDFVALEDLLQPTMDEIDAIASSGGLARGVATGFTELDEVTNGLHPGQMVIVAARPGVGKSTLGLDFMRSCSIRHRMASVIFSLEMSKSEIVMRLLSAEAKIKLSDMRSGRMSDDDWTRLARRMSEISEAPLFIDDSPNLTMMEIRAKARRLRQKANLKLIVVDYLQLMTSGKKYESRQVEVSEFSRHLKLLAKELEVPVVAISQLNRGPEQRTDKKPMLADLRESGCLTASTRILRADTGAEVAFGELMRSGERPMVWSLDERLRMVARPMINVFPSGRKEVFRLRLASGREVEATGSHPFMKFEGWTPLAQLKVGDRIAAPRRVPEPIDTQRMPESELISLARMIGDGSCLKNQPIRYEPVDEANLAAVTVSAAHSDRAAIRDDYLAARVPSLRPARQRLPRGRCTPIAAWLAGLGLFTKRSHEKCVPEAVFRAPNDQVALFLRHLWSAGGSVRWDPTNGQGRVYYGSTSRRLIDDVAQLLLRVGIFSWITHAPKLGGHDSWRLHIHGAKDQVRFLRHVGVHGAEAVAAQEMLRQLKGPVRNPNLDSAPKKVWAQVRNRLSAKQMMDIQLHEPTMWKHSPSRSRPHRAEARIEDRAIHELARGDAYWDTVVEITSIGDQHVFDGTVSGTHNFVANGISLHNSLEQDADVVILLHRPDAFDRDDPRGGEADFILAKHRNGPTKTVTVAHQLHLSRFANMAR
As to the kind of experiment: DnaB intein splicing inhibitors, dose response, biochemical, cell-free fluorescence (AID 449749). In kind it is functional.

Test [12] concerns the target T5, Protein RecA (Mycobacterium tuberculosis, UniProt P9WHJ3).
T5 sequence (P9WHJ3 whole entry): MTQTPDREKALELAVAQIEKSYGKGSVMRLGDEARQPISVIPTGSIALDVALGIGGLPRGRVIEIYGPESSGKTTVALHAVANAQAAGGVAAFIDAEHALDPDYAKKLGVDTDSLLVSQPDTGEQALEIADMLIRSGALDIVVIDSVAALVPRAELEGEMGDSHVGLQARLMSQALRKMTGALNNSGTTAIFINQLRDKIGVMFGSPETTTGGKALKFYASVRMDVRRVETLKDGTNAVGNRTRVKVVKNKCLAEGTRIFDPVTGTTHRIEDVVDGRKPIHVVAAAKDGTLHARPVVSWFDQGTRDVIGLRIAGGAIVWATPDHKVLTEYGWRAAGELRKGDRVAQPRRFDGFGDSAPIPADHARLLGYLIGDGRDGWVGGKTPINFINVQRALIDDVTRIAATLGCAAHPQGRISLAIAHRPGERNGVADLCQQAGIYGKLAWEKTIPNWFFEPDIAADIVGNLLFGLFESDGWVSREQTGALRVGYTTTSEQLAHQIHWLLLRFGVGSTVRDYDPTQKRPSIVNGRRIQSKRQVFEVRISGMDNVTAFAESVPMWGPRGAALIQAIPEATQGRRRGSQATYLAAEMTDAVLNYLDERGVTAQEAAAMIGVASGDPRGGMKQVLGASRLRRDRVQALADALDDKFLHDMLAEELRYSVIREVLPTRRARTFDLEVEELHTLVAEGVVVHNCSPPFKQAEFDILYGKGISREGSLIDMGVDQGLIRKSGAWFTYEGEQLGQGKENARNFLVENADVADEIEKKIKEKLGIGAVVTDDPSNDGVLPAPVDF
As to the kind of experiment: Fluorescence Cell-Free Homogeneous Dose Retest to Identify Inhibitors of RecA-Intein Splicing Activity. [Related pubchem assays (depositor defined):AID2097, AID2223, AID489010, AID492950]. In kind it is functional.

The target of test [13] is Cytochrome P450 2D6 (Homo sapiens, UniProt P10635).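 Note: CYP2D6 member of a cytochrome P450 panel assay.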
Cytochrome P450 2D6, sequence (P10635 whole entry): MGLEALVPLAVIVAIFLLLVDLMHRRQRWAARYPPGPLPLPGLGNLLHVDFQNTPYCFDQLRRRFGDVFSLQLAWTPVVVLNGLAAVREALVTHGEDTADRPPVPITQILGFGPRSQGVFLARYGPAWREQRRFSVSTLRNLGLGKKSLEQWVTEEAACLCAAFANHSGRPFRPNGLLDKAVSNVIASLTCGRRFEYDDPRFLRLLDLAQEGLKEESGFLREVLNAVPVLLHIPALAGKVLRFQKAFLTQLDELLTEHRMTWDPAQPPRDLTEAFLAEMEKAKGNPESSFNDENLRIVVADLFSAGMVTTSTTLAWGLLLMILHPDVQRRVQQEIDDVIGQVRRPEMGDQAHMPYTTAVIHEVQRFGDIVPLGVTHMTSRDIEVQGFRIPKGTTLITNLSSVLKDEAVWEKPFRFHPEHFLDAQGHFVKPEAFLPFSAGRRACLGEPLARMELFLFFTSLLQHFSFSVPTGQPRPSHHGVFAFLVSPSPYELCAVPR
Test [14] addresses T6, Cytochrome P450 1A2 (Homo sapiens, UniProt P05177).
T6 sequence (P05177 whole entry): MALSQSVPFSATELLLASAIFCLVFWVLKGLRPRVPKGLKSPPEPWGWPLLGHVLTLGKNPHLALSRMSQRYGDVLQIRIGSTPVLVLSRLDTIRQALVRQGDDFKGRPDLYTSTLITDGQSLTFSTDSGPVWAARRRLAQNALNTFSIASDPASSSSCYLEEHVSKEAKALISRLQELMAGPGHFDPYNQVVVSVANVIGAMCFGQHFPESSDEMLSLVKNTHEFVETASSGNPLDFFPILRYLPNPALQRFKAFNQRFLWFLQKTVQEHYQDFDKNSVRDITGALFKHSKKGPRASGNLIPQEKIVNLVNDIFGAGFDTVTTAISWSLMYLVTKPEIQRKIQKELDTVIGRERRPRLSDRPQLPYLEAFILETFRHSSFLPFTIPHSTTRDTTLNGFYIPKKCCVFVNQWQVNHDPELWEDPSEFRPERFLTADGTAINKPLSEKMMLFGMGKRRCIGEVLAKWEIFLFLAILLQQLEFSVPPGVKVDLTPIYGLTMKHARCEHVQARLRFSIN

The nature of test [15]: inhibitors of intracellular T. cruzi replication, confirmation, NIH3T3 host cells, beta-gal luminescence (AID 2044).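 Note: intracellular parasites grown in NIH/3T3 mouse fibroblasts as host cells; luminescent beta-galactosidase reporter signal from transgenic T. cruzi replicating inside host cells; inhibitors lower the luminescence signal.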 In kind it is functional, cell-based.
The nature of test [16]: cytotoxicity toward NIH3T3 fibroblasts, dose response, counter-screen, cell-based, ATP luminescence, mouse fibroblasts (AID 2010).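 Note: cells exposed to compound for about 90 hours before reading.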 In kind it is functional.

What is called EC50 is the concentration at which the effect is half-maximal. `COC(=O)C1=C(C)N(c2ccccc2)/C(=C/c2ccco2)C1=O`: the EC50 was 99 µM (active) in test [1] and 5.06 µM (active) in test [2].

In the case of `CC1=CC(C)(C)N2C(=O)C3(C(C#N)=C(N)OC4=C3C(=O)CC(C)(C)C4)c3cccc1c32` (centres undefined), the EC50 in test [1] and in test [2] was > 300 µM (not active) in each case.

As for `CCC(C)c1ccc2oc(-c3ccc(NC(=O)Cn4cnc5c(=O)n(C)c(=O)n(C)c54)cc3)nc2c1` (centres undefined), the EC50 was > 350 µM (not active) in test [3], 43.7 µM (active) in [4], 9.27 µM (active) in test [5] and 8.52 µM (active) in test [6].

In general, AC50 refers to the concentration at which the activity in the assay is half-maximal. For the compound `CCN(CC)S(=O)(=O)c1ccc(N/N=C/c2cc(OC)ccc2O)nc1`, the EC50 in [3] is 302 µM (active); in test [4] it was 25.7 µM (active). The AC50 in test [7] is 4.47 µM (active); in test [8], 1.69 µM (active).

With `Cc1c(C(=O)O)cccc1-n1c(C)cc(/C=N/NC(=O)c2cc3ccccc3o2)c1C`, the EC50 in test [1] and in test [2] was > 300 µM (not active) throughout.

Take `FC(F)(F)c1nnc(-c2ccccc2)nc1Sc1ccccc1`: the EC50 in test [5] is 18.7 µM (active); in [6] it was 17.3 µM (active); in [9], 4.22 µM (inconclusive); in test [12] it was 9.56 µM (active). Moreover, the AC50 is 0.00355 µM (inconclusive) in test [10] and 19.3 µM (active) in test [11].

For `O=C(NCc1ccccc1)C1Nc2ccc(OC(F)(F)F)cc2C2C=CCC12` (centres undefined), the concentration for a half-maximal effect (EC50) in test [1] and in [2] was > 300 µM (not active) each time.

`O=P(Nc1ccccc1)(Nc1ccccc1)Oc1cccc(Cl)c1`: the EC50 was 134 µM (active) in test [5] and 239 µM (active) in [6]. Moreover, the AC50 in test [13] and in [14] was 15.8 µM (inconclusive) throughout.

For `CN(C)c1ccc(N/C=C2/C(=O)NC(=O)N(CCC3=CCCCC3)C2=O)cc1`, the EC50 in [1] and in [2] was > 300 µM (not active) in each case.

Consider `Cc1ccc(-c2nc(NC(=O)c3ccc(S(=O)(=O)N(CCC#N)CCC#N)cc3)sc2-c2ccccc2)cc1`, for which the concentration giving a half-maximal response (EC50) is 2.02 µM (active) in test [15], 17 µM (active) in test [5], > 60 µM (not active) in test [16] and 17.3 µM (active) in test [6].

For the compound `CCOC(=O)C(/C=N/c1ccc(NC2=NCC(C)S2)cc1)=C(/O)OCC` (centres undefined), the 50% effective concentration (EC50) in [3] and in test [4] was > 350 µM (not active) in each case.

`CCOC(=O)c1nn(-c2ccc(C)cc2)c2nc(Nc3ccccc3)cc(=O)n12`: the values for the EC50 in test [1] and in test [2] were 78.2 µM (active) and > 300 µM (not active), respectively.

For the compound `CCCCNC(=O)CN1C(=O)COc2ccc(S(=O)(=O)N3CCCCCC3)cc21`, the concentration for a half-maximal effect (EC50) in test [3] and in test [4] was > 350 µM (not active) throughout.

Turning to `CN(C)c1ccc(N=Nc2ccc(S(N)(=O)=O)cc2)cc1`, the EC50 was > 350 µM (not active) in [3] and 3.13 µM (active) in test [4].

On to `Cc1nnc(S/C(=C/c2ccc(-c3cc(Cl)ccc3C)o2)C(=O)O)[nH]1`, for which the EC50 is 38.4 µM (active) in test [1] and 31 µM (active) in test [2].

As for `CS(=O)(=O)n1nc(-c2ccccc2)nc1NCc1ccco1`, the EC50 in [3] and in [4] was > 350 µM (not active) in each case.
